Values after ≈ are worked out from the molar mass of the structure shown. Values joined by “and” are separate entries in the source; they are usually repeats but may differ in a detail not shown here. Equal values may be shown once. Read-outs that look alike come from different tables or passages of the source.
Columns and labels:
[1] = Solubility of sEHI; assay type: physicochemical; conditions: PEG300, organic solvent or mixture
Protocol: […] The non-dissolved compounds were filtered through a 0.22 μm centrifuge filter at 40°C and the supernatant was further diluted 10 times with methanol. The samples were analyzed by LC/MS-MS.

[2] = Microsomal stability; assay type: in vitro ADME, dog; conditions: for % Parent + NADPH / % Parent − NADPH: 60 min, 37°C
Protocol: Male and female dog liver microsomes (Xenotech) were diluted in potassium phosphate buffer (0.1M, pH 7.4), MgCl2 (3.15 mM), and sodium EDTA (1.05 mM) to a final protein concentration of 1 mg/mL. Compounds were added at 0.1 mM in methanol at 1% and microsomes were activated with 5% (v/v) NADPH regenerating system (100 μL sodium phosphate buffer (0.1M, pH 7.4), 50 μL, glucose-6-phosphate in sodium phosphate buffer (0.1M, pH 7.4), 50 μL NADP+ in sodium phosphate (0.1M, pH 7.4), and 50 μL of 100 Units/mL of […]). […] Compounds were incubated without microsomes or NADPH as negative controls.

[3] = Blood and synovial fluid concentrations in treated osteoarthritic dogs; assay type: in vivo, dog; conditions: for concentration at 2 h: beagle, dog, oral, EC1728 5 mg/kg; for Blood concentration D5 / Synovial fluid concentration D1 / Synovial fluid concentration D5: po, qd x 5, detected EC1728, individual dogs;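 as to Synovial fluid concentration D1: synovial fluid also sampled on Day 1 after the pain assessment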
Protocol: (§1) Eight satellite dogs (2 per each group) had whole blood collected for PK analysis on study Days […]. On Day 1, blood was collected immediately prior to dosing, and again at 0.25, 0.5, 1, 2, 4, 6, and 8 (±5 min) after dosing. On Day 2 through 4, blood was collected 0.5 h (±5 min) after dosing. On Day 5 blood was collected immediately prior to dosing, and again at 0.25, 0.5, 1, 2, 4, 6, 8 (±5 min), 24, 48, and 72 h (±30 min) post treatment. […] For all blood samples, a minimum of 3 mL of whole blood was collected from a suitable vein as per written and approved standard operating procedures. The blood was transferred to K2EDTA (spray dried) blood tube and inverted gently multiple times to ensure proper mixing of the blood and anticoagulant. On study Day 5, synovial fluid was collected by arthrocentesis immediately after the subject completed the questionnaire (approximately […] after dosing). Subjects were anesthetized as per written and approved Standard Operating Procedures. A minimum of 0.1 mL of synovial fluid was collected from each subject. Samples were frozen in an upright position and stored at -80°C ± 4°C before being shipped to UC Davis for analysis.
Pain and function were assessed by a questionnaire answered by blinded technicians based on observation of study animals housed at InterVivo. The survey was adapted from the canine brief pain inventory (CBPI), which was developed based on clinical questionnaires in which owners score the function and pain level of their pets with existing pain conditions ([Brown et al., 2007]). Modifications to the questionnaire attempted to account for differences between owner pain evaluation of pets and pain evaluation of laboratory dogs by technical staff. For survey administration, blinded technicians attempted to elicit objective behavior-specific measures of function and pain level across a variety of normal canine behaviors (e.g., walking, trotting, galloping, rearing, and stair-climbing, etc.). For this, one technician was responsible for soliciting the relevant behaviors from a dog using encouragement and/or food rewards, while the evaluating technician scored function and observable pain using the modified CBPI questionnaire. Subjects were tested daily on Days -7 through -3, to develop baseline scores, and again on Days 1 through 5 administered 1.5 h after dosing. Dosing occurred in the morning, and observations were recorded 1.5 h after dosing, to limit time-of-day variability. Questions are listed in Supplementary Table S3. Animals in treatment groups had blood and synovial fluid collected ∼2 h after the last dose on day 5 (immediately following the study questionnaire) to confirm plasma concentrations in treated animals. Full pharmacokinetic assessments were collected from a satellite group of animals so as not to interfere with pain assessment.

[4] = PK analysis in satellite dogs; assay type: in vivo, dog; conditions: beagle, dog, whole blood; for AUC(0-t) / Cmax: detected EC1728, blood
Protocol: as §1
For PK analysis in the satellite group, individual parameters were calculated by fitting blood concentrations to a non-compartmental analysis using Kinetica software (Thermo Fisher Scientific version 5.1). Using the log-linear trapezoidal method, the area under the curve were calculated and were extrapolated to infinity using the last measured plasma concentration (Clast), defined as the timepoint collected 72 h after the last dose or 8 hr after the first dose on day 1, divided by the terminal slope (λz).

[5] = female, po, 1 mg/kg, dosed EC1728 1 mg/kg oral qd, female dog, Day 1
[6] = female, po, 1 mg/kg, dosed EC1728 1 mg/kg oral qd, female dog, Day 5
[7] = female, po, 5 mg/kg, dosed EC1728 5 mg/kg oral qd, female dog, Day 1
[8] = female, po, 5 mg/kg, dosed EC1728 5 mg/kg oral qd, female dog, Day 5
[9] = male, po, 1 mg/kg, dosed EC1728 1 mg/kg oral qd, male dog, Day 1
[10] = male, po, 1 mg/kg, dosed EC1728 1 mg/kg oral qd, male dog, Day 5
[11] = male, po, 5 mg/kg, dosed EC1728 5 mg/kg oral qd, male dog, Day 1
[12] = male, po, 5 mg/kg, dosed EC1728 5 mg/kg oral qd, male dog, Day 5

O=C(Nc1ccc(OC(F)(F)F)cc1)N[C@H]1CC[C@H](Oc2ccc(C(=O)O)cc2)CC1 [EC1728, trans-4-{4-[3-(4-trifluoromethoxy-phenyl)-ureido]-cyclohexyloxy}-benzoic acid]
solubility [1]: 97 ± 2 mg/mL (≈ 221 mM) | % Parent + NADPH ([2]; female dog liver microsomes): 98 ± 6% | % Parent − NADPH ([2]; female dog liver microsomes): 106 ± 9% | % Parent + NADPH ([2]; male dog liver microsomes): 103 ± 6% | % Parent − NADPH ([2]; male dog liver microsomes): 108 ± 8% | remaining at 1 h, 1 µM ([2]; pH 7.4, dog liver microsomes, 60-min incubation, sex not specified): > 95% | concentration at 2 h ([3]; blood, 5 mg/kg, day 5, group without dog 2.4, read-out: Blood concentration, average for the remainder of the group): 395 ng/mL | concentration at 2 h ([3]; synovial fluid, 5 mg/kg, day 5, read-out: Synovial fluid concentration, averaged for the group): 988 ng/mL | concentration at 2 h ([3]; synovial fluid, 5 mg/kg, dog 2.4 (low exposure, removed from analysis), read-out: Synovial fluid concentration, dog 2.4): 80 to 95 ng/mL | Blood concentration D5 ([3]; dosed EC1728 1 mg/kg, 1 mg/kg): 31 ng/mL and 72 ng/mL and 76 ng/mL and 64 ng/mL and 82 ng/mL and 40 ng/mL and 36 ng/mL and 171 ng/mL | Synovial fluid concentration D1 ([3]; dosed EC1728 1 mg/kg, 1 mg/kg): 331 ng/mL and 206 ng/mL and 455 ng/mL and 232 ng/mL and 483 ng/mL and 111 ng/mL and 384 ng/mL and 917 ng/mL | Synovial fluid concentration D5 ([3]; dosed EC1728 1 mg/kg, 1 mg/kg): 239 ng/mL and 206 ng/mL and 378 ng/mL and 328 ng/mL and 315 ng/mL and 171 ng/mL and 214 ng/mL and 945 ng/mL | Blood concentration D5 ([3]; dosed EC1728 5 mg/kg, 5 mg/kg): 34 ng/mL and 206 ng/mL and 348 ng/mL and 314 ng/mL and 935 ng/mL and 228 ng/mL and 493 ng/mL and 244 ng/mL | Synovial fluid concentration D1 ([3]; dosed EC1728 5 mg/kg, 5 mg/kg): 2270 ng/mL and 301 ng/mL and 1180 ng/mL and 2220 ng/mL and 1470 ng/mL and 460 ng/mL and 95 ng/mL | Synovial fluid concentration D5 ([3]; dosed EC1728 5 mg/kg, 5 mg/kg): 1000 ng/mL and 1150 ng/mL and 833 ng/mL and 1330 ng/mL and 672 ng/mL and 668 ng/mL and 2170 ng/mL and 80 ng/mL | half-life ([4]; oral, satellite dogs, range over both compounds, Table 3, read-out: half-life): 24 to 40 h | AUC(0-t) [4, 5]: 1350 ng·h/mL | Cmax [4, 5]: 308 ng/mL | AUC(0-t) [4, 6]: 155000 ng·h/mL | Cmax [4, 6]: 4660 ng/mL | half-life ([4]; female, po, 1 mg/kg, read-out: T1/2 (converted)): 33 h | AUC(0-t) [4, 7]: 4940 ng·h/mL | Cmax [4, 7]: 1160 ng/mL | AUC(0-t) [4, 8]: 53200 ng·h/mL | Cmax [4, 8]: 4990 ng/mL | half-life ([4]; female, po, 5 mg/kg, read-out: T1/2 (converted)): 23 h | AUC(0-t) [4, 9]: 1690 ng·h/mL | Cmax [4, 9]: 330 ng/mL | AUC(0-t) [4, 10]: 32000 ng·h/mL | Cmax [4, 10]: 1900 ng/mL | half-life ([4]; male, po, 1 mg/kg, read-out: T1/2 (converted)): 27 h | AUC(0-t) [4, 11]: 3760 ng·h/mL | Cmax [4, 11]: 1100 ng/mL | AUC(0-t) [4, 12]: 96300 ng·h/mL | Cmax [4, 12]: 1930 ng/mL | half-life ([4]; male, po, 5 mg/kg, read-out: T1/2 (converted)): 25 h
